Laboratory results from PMC7156724, “Potent BRD4 inhibitor suppresses cancer cell-macrophage interaction” (Nature Communications, 2020).
“And” between values parts separate entries of the source, which are not always exact repeats. Equal values may be shown once.

Legend:
TAMs = assay: Transwell 2D co-culture of pretreated A2780 cells and TAMs, colonies; assay type: cell-based, mouse
Description: CD45^+CD11b^+F4/80^+ TAMs were isolated from peritoneal metastasis of A2780 tumor-bearing mice and cultured in RPMI-1640 supplemented with 10% FBS, 1% penicillin/streptomycin, and 0–50 ng/ml CSF1 (R&D Systems) as indicated according to standard protocols. In the cancer cell-macrophage co-culture experiments, CSF1 was not added. In the transwell (Corning, pore size, 0.4 μm) co-culture experiments, tumor cells were placed into the upper chamber, and TAMs were seeded into the lower chamber. […]
with anti-CD45, CD11b and CD206 followed by FACS analysis. Shown are representative FACS plots (c) and quantification of the percentage of CD11b+CD206+ cells (d). Data are presented as mean ± SEM from 5 different mice. p values were calculated using two-tailed, unpaired t tests. **, p<0.01; ***, p<0.001. […] Quantification of spheroid volumes (f). Data are presented as mean ± SEM from 15 independent experiments. p values were calculated using two-tailed, unpaired t tests. **, p<0.01. […]
CD45+F4/80 +CD11b+CD206+ TAMs were isolated from tumors of ovarian cancer-bearing donor m i c e. Sh o wn are schematics of the experiment (g), representative images (h) and quantification of colonies (i). Data are presented as mean ± SEM from 3 independent experiments. p values were calculated using two-tailed, unpaired t tests. **, p<0.01; ***, p<0.001. […]

[1] = Equilibrium dialysis assay, SD rat plasma
Description: The concentration was calculated using the peak area ratio of analyte and internal […]
The results were calculated by the following equations:
% Unbound = 100 *FC / TC, % Bound = 100 * (1-FC / TC)
% Recovery = 100 * (FC + TC) / T0
TC = Total compound concentration as determined by the calculated concentration on the retentate side of the membrane
FC = Free compound concentration as determined by the calculated concentration on the dialysate side of the membrane […]
Equation of first order kinetics: […]
8. Equilibrium dialysis assay. Binding with plasma protein and recovery rate of NHWD-870 were performed with human, CD-1 mouse and SD rat plasma as […]
described 2. […] The concentration was […]
calculated using the peak area ratio of analyte and internal standard. The results were calculated by the following equations: % Unbound = 100 *FC / TC, % Bound = 100 * (1-FC / TC); % Recovery = 100 * (FC + TC) / T0; TC = Total compound concentration as determined by the calculated concentration on the retentate side of the membrane; FC = Free compound concentration as determined by the (1 picture or pasted object on this page, not shown here) […]
calculated concentration on the dialysate side of the membrane; T0 = To t a l compound concentration as determined before dialysis. […]
10. hERG channel assay. […]
HEK293 cell line stably

[2] = biological target: T1, human Ether-à-go-go related gene (hERG) channel (Homo sapiens, UniProt Q12809); assay: hERG channel assay, manual patch-clamp; assay type: cell-based; conditions: HEK293 cells stably transfected with hERG, read-out: IC50, inhibition of hERG channel
T1 construct: host or cells: HEK293, stably transfected, expression induced with doxycycline
T1 sequence (Q12809 whole entry): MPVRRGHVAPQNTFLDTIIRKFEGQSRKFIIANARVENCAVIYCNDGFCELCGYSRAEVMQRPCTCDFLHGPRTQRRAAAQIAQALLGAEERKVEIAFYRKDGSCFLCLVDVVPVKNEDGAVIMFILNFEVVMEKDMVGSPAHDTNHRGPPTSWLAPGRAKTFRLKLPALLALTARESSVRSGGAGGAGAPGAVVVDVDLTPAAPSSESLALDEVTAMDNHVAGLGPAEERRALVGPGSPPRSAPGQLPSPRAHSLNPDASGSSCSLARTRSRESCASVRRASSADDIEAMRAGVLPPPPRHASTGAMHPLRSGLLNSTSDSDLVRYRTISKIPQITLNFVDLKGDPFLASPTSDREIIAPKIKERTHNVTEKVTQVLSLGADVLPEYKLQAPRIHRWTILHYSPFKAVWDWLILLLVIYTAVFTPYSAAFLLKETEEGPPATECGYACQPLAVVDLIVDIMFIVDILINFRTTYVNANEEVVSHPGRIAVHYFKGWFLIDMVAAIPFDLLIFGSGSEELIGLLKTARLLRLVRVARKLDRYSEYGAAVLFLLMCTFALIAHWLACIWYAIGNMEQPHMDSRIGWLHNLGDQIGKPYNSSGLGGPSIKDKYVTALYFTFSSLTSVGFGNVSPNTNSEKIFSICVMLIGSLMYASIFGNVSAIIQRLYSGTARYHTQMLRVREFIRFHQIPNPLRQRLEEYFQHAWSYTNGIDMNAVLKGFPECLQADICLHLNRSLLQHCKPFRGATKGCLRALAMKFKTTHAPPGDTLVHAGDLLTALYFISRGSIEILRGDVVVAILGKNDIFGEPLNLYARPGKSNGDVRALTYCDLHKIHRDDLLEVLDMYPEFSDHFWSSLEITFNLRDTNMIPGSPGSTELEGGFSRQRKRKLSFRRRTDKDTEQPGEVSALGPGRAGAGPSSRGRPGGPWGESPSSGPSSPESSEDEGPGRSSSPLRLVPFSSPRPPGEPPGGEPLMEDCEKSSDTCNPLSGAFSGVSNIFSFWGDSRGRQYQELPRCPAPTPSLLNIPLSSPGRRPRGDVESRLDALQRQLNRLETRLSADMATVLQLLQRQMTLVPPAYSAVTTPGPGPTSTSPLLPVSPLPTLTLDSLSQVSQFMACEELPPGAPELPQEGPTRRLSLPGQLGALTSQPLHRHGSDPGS
Description: calculated concentration on the dialysate side of the membrane; T0 = To t a l compound concentration as determined before dialysis. Good plasma stability should have a value of not less than 80% bound, and the recovery rate should be […]
9. In vivo pharmacokinetics study. Mouse and SD rat models were used to evaluate pharmacokinetic property of NHWD-870. NHWD-870 was administrated by either intravenous injection (IV, 1.75 mg/kg for mouse and 1 mg/kg for rat) or oral gavage (PO, 5 mg/kg) into mice or rats. Concentration of drugs in plasma, lung and tumor tissues were measured for the indicated time.
10. hERG channel assay. The potential inhibitory effect of NHWD-870 on human Ether-à-go-go related gene (hERG) channel was evaluated by manual patch-clamp system using the protocols described below. HEK293 cell line stably

[3] = test system: TAMs (CD68+ cells) in A2780 tumors; assay: Immunofluorescent staining of CD68 and Ki67 (TAMs) in subcutaneous A2780 tumors; assay type: in vivo, mouse; conditions: individual tumors
Text: Shown are immunofluorescent staining of CD68 (macrophage marker, red) and E-Cadherin (cancer cells, green) (a) and quantification of CD68 positive cells (b) in vehicle, NHWD-870 treated H526 (n = 6) and A2780 (n = 5) tumors from Fig. 3a, b, respectively. Scale bar is 100 μm. […] Shown are representative immunofluorescent staining of Ki67 and CD68 (c) and quantification of percentage of Ki67+ cells in CD68+ cells (d). Scale bar is 30 μm. Data are presented as mean ± SEM of five different tumors. e Schematics of the animal experiments using an orthotopic mouse OC model, established by intraperitoneally injecting human A2780 cells into female recipient nude mice. […] Shown are representative immunofluorescent staining of Ki67 and CD68 (h) and quantification of Ki67^+CD68^− (i) or Ki67^+CD68^+ (j), or CD68^+ cells (k). […] Data are presented as mean ± SEM from five different mice. p values were calculated using two-tailed, unpaired t tests in this figure. *p < 0.05; **p < 0.01; ***p < 0.001. […]
Immunofluorescence staining of tumor sections was performed according to the manufacturer’s instructions. Slides were imaged using a Zeiss Axiovert 200 fluorescence microscope (Carl Zeiss MicroImaging; Thornwood, NY), and images were captured using Openlab3 software (Imprecision, Lexington, MA). Cleaved caspase 3, Ki67, CSF1, and CD68 positive cells were counted with ImageJ version 1.52s[58].

With `Cc1nnn(C)c1-c1cnc2c3c4cnn(C)c4ccc3n([C@H](c3ccccc3)C3CCOCC3)c2c1` [NHWD-870] the “fold decrease of the growth of TAMs” value (TAMs; 50 nM, 2D system) was “about 6 fold”, the “growth of TAMs in 2D co-culture system” value (TAMs; A2780 pre-treated with 25 or 50 nM for 48h) was “potently decreased the growth of TAMs in a dose-dependent manner” and the “% Bound” value ([1]; SD rat plasma, equilibrium dialysis) was 95.4%. It also gave a fraction unbound ([1]; SD, rat, plasma) of 0.046, a recovery ([1]; SD, rat, plasma) of 92.5% and an IC50 [2] of 5.4 µM. The “quantification of CD68 positive cells” value ([3]; subcutaneous A2780 tumors from Fig. 3b) was 0.5 and 0.3 and 0.2 and 1.2 and 2.3 and the “percentage of Ki67+ cells in CD68+ cells” value ([3]; subcutaneous A2780 tumors) was 3.1 and 0 (3×) and 1.7.
